# Values quoted from earlier work as cited in patent publication US20080300304A1, “Ginger Fraction For Inhibiting Human Cyp Enzymes” (priority 2005, published 2008).
row,Compound,oral availability [%]
1,CC(=O)O[C@@]12CO[C@@H]1C[C@H](O)[C@@]1(C)C(=O)[C@H](O)C3=C(C)[C@@H](OC(=O)[C@H](O)[C@@H](NC(=O)OC(C)(C)C)c4ccccc4)C[C@@](O)([C@@H](OC(=O)c4ccccc4)[C@H]21)C3(C)C [docetaxel],8
2,CC[C@H](C)C(=O)O[C@H]1C[C@@H](C)C=C2C=C[C@H](C)[C@H](CC[C@@H]3C[C@@H](O)CC(=O)O3)[C@H]21 [lovastatin],4
3,CC(C)c1c(C(=O)Nc2ccccc2)c(-c2ccccc2)c(-c2ccc(F)cc2)n1CC[C@@H](O)C[C@@H](O)CC(=O)O [atorvastatin],12
4,CCOC(=O)C1=C(C)NC(C)=C(C(=O)OC)C1c1cccc(Cl)c1Cl (stereo not drawn) [felodipine],15
5,C/C=C/C[C@@H](C)C(=O)[C@H]1C(=O)N[C@@H](C(C)C)C(=O)N(C)CC(=O)N(C)[C@@H](CC(C)C)C(=O)N[C@@H](C(C)C)C(=O)N(C)[C@@H](CC(C)C)C(=O)N[C@@H](C)C(=O)N[C@H](C)C(=O)N(C)[C@@H](CC(C)C)C(=O)N(C)[C@@H](CC(C)C)C(=O)N(C)[C@@H](C(C)C)C(=O)N1C [valspodar],34
6,COc1cc(N)c(Cl)cc1C(=O)NC1CCN(CCCOc2ccc(F)cc2)CC1OC (stereo not drawn) [cisapride],38

# Now from value to compound:
row,oral availability [%],Compound
1,20,CO[C@H]1/C=C/O[C@@]2(C)Oc3c(C)c(O)c4c(c3C2=O)C2=NC3(CCN(CC(C)C)CC3)NC2=C(NC(=O)/C(C)=C\C=C\[C@H](C)[C@H](O)[C@@H](C)[C@@H](O)[C@@H](C)[C@H](OC(C)=O)[C@@H]1C)C4=O [rifabutin]
2,16,C=CC[C@@H]1/C=C(\C)C[C@H](C)C[C@H](OC)[C@H]2O[C@@](O)(C(=O)C(=O)N3CCCC[C@H]3C(=O)O[C@H](/C(C)=C/[C@@H]3CC[C@@H](O)[C@H](OC)C3)[C@H](C)[C@@H](O)CC1=O)[C@H](C)C[C@@H]2OC [tacrolimus]
3,15,CO[C@H]1C[C@@H]2CC[C@@H](C)[C@@](O)(O2)C(=O)C(=O)N2CCCC[C@H]2C(=O)O[C@H]([C@H](C)C[C@@H]2CC[C@@H](O)[C@H](OC)C2)CC(=O)[C@H](C)/C=C(\C)[C@@H](O)[C@@H](OC)C(=O)[C@H](C)C[C@H](C)/C=C/C=C/C=C/1C [sirolimus]
